SMILES strings stand for the structures. Where a name gives a salt, the structure may show the parent alone.

The IC50 is the concentration that gives 50% inhibition.

This experiment concerns the target T1, mGlyT-1b (Mus musculus, UniProt P28571).
T1 construct: host or cells: Flp-in-CHO
T1 sequence (P28571 1-651 isoform P28571-2): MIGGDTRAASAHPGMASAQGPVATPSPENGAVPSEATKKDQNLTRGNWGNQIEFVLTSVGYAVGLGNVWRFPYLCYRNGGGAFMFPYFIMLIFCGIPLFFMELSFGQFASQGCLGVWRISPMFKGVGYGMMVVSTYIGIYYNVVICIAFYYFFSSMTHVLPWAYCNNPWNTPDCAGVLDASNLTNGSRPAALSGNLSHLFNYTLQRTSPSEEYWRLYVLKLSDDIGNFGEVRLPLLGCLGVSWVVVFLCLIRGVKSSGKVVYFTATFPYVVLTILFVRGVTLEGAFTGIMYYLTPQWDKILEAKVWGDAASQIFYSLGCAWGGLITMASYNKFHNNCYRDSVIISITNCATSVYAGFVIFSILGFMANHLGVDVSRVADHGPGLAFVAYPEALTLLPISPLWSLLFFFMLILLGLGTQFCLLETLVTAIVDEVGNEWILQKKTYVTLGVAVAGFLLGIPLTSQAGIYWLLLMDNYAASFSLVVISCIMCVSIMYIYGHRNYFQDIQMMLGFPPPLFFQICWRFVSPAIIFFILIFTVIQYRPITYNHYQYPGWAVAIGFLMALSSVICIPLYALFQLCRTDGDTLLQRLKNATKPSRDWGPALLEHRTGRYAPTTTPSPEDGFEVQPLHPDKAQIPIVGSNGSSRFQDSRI
Briefly: Glycine uptake inhibition assay (mGlyT-1b), [3H]-glycine uptake in transfected Flp-in-CHO cells. Type of experiment: cell-based. The conditions noted are these: Flp-in-CHO cells transfected with mGlyT-1b cDNA; [3H]-glycine 60 nM and 25 μM non-radioactive glycine; 20 min preincubation at 22° C.; read-out: IC50 (μM) at GlyT-1; Ic50 (hglyt1b). Here is the method: Nutrient mixture F-12 (Gibco Life-technologies), fetal bovine serum (FBS) 5%, (Gibco life technologies), Penicillin/Streptomycin 1% (Gibco life technologies), Hygromycin 0.6 mg/ml (Gibco life technologies), Glutamine 1 mM Gibco life technologies).
150 mM NaCl, 10 mM Hepes-Tris, pH 7.4, 1 mM CaCl2, 2.5 mM KCl, 2.5 mM MgSO4, 10 mM (+) D-glucose. Flp-in™-CHO (Invitrogen Cat n° R758-07) cells stably transfected with mGlyT1b cDNA.
Glycine Uptake Inhibition Assay (mGlyT-1b)
On day 1 mammalian cells, (Flp-in™-CHO), transfected with mGlyT-1b cDNA, were plated at the density of 40,000 cells/well in complete F-12 medium, without hygromycin in 96-well culture plates. On day 2, the medium was aspirated and the cells were washed twice with uptake buffer (UB). The cells were then incubated for 20 min at 22° C. with either (i) no potential competitor, (ii) 10 mM non-radioactive glycine, (iii) a concentration of a potential inhibitor. A range of concentrations of the potential inhibitor was used to generate data for calculating the concentration of inhibitor resulting in 50% of the effect (e.g. IC50, the concentration of the competitor inhibiting glycine uptake of 50%). A solution was then immediately added containing [^3H]-glycine 60 nM (11-16 Ci/mmol) and 25 μM non-radioactive glycine. The plates were incubated with gentle shaking and the reaction was stopped by aspiration of the mixture and washing (three times) with ice-cold UB. The cells were lysed with scintillation liquid, shaken 3 hours and the radioactivity in the cells was counted using a scintillation counter.
As to `COc1cccc(-c2ccc([C@@H](O)[C@@H](N)c3ccc(Cl)cc3)cc2)c1` (racemic) [Example 72, rac-erythro-2-Amino-2-(4-chloro-phenyl)-1-(3′-methoxy-biphenyl-4-yl)-ethanol], the IC50 was found to be 0.385 µM.

As for `CC(=O)N1CCC(Oc2ccc([C@@H](O)[C@@H](N)c3ccc(Cl)c(Cl)c3)cc2)CC1` (racemic) [Example 46, rac-erythro-[1-(4-[4-[2-Amino-2-(3,4-dichloro-phenyl)-1-hydroxy-ethyl]-phenoxy]-piperidin-1-yl)-ethanone], the IC50 was 0.262 µM.

For `Cc1ccc([C@H](N)[C@H](O)c2ccc(-c3cncc(F)c3)cc2)cc1Cl` (racemic) [Example 93, rac-erythro-2-Amino-2-(3-chloro-4-methyl-phenyl)-1-[4-(5-fluoro-pyridin-3-yl)-phenyl]-ethanol], the half-maximal inhibitory concentration (IC50) was 0.094 µM.

Consider `N[C@@H](c1ccc(Cl)cc1)[C@H](O)c1ccc(-c2cccnc2)cc1` (racemic) [Example 63, rac-erythro-2-Amino-2-(4-chloro-phenyl)-1-(4-pyridin-3-yl-phenyl)-ethanol hydrochloride], for which the IC50 was 0.09 µM.

In the case of `N[C@@H](c1ccc(Cl)cc1)[C@H](O)c1ccc(-c2cccc(OC(F)(F)F)c2)cc1` (racemic) [Example 78, rac-erythro-2-Amino-2-(4-chloro-phenyl)-1-(3′-trifluoromethoxy-biphenyl-4-yl)-ethanol], the IC50 turned out to be 0.88 µM.

With `Nc1ccc(-c2ccc([C@@H](O)[C@@H](N)c3ccc(Cl)cc3)cc2)cn1` (racemic) [Example 69, rac-erythro-2-Amino-1-[4-(6-amino-pyridin-3-yl)-phenyl]-2-(4-chloro-phenyl)-ethanol], the IC50 was determined as 0.217 µM.

As to `N[C@@H](c1ccc(Cl)c(Cl)c1)[C@H](O)c1ccc(OC2CCOC2)cc1` (mixture of isomers) [Example 42, rac-erythro-[rac-2-Amino-2-(3,4-dichloro-phenyl)-1-[4-(tetrahydro-furan-3-yloxy)-phenyl]-ethanol], the IC50 came to 0.052 µM.

With `CO[C@H](c1ccc(-c2cccnc2)cc1)[C@@H](N)c1ccc(Cl)c(Cl)c1` (racemic) [Example 98, rac-erythro-1-(3,4-Dichloro-phenyl)-2-methoxy-2-(4-pyridin-3-yl-phenyl)-ethylamine dihydrochloride], the 50% inhibitory concentration (IC50) came out at 0.388 µM.

Consider `N[C@@H](c1ccc(Cl)c(Cl)c1)[C@H](O)c1ccc(-c2cccnc2)cc1` (racemic) [Example 81, rac-erythro-2-Amino-2-(3,4-dichloro-phenyl)-1-(4-pyridin-3-yl-phenyl)-ethanol], for which the IC50 turned out to be 0.031 µM.

Consider `CCC(C)Oc1ccc([C@@H](O)[C@@H](N)c2ccc(Cl)c(Cl)c2)cc1` (mixture of isomers) [Example 51, rac-erythro-2-Amino-1-(4-sec-butoxy-phenyl)-2-(3,4-dichloro-phenyl)-ethanol], for which the half-maximal inhibitory concentration (IC50) came out at 0.72 µM.

Consider `N[C@@H](c1ccc(Cl)c(Cl)c1)[C@H](O)c1ccc(OC2CCS(=O)(=O)CC2)cc1` (racemic) [Example 44, rac-erythro-[2-Amino-2-(3,4-dichloro-phenyl)-1-[4-(1,1-dioxo-hexahydro-1λ^6-thio-pyran-4-yloxy)-phenyl]-ethanol], for which the IC50 was determined as 0.088 µM.

Turning to `Cc1nc(OC(C)C)ccc1[C@@H](O)[C@@H](N)c1ccc(Cl)c(Cl)c1` (racemic) [Example 27, rac-erythro-[2-Amino-2-(3,4-dichloro-phenyl)-1-(6-isopropoxy-2-methyl-pyridin-3-yl)-ethanoldihydrochloride], the 50% inhibitory concentration (IC50) was found to be 0.259 µM.

For `N[C@@H](c1ccc(Cl)c(Cl)c1)[C@H](O)c1ccc(OC2CCOC2)cn1` (mixture of isomers) [Example 23, rac-erythro-[rac-2-Amino-2-(3,4-dichloro-phenyl)-1-[5-(tetrahydro-furan-3-yloxy)-pyridin-2-yl]-ethanoldihydrochloride], the IC50 was 0.16 µM.

As for `N[C@@H](c1ccc(Cl)c(Cl)c1)[C@H](O)c1ccc(OC2CCOCC2)cc1` (racemic) [Example 40, rac-erythro-[2-Amino-2-(3,4-dichloro-phenyl)-1-[4-(tetrahydro-pyran-4-yloxy)-phenyl]-ethanol], the 50% inhibitory concentration (IC50) stood at 0.052 µM.

For the compound `COc1cc([C@@H](O)[C@@H](N)c2ccc(Cl)c(Cl)c2)ccc1-c1cncc(F)c1` (racemic) [Example 3, rac-erythro-[2-Amino-2-(3,4-dichloro-phenyl)-1-[4-(5-fluoro-pyridin-3-yl)-3-methoxy-phenyl]-ethanoldihydrochloride], the half-inhibitory concentration (IC50) came out at 0.186 µM.

On to `N[C@@H](c1ccc(Cl)c(Cl)c1)[C@H](O)c1ccc(OCC(F)(F)F)cc1` (racemic) [Example 47, rac-erythro-[2-Amino-2-(3,4-dichloro-phenyl)-1-[4-(2,2,2-trifluoro-ethoxy)-phenyl]-ethanol], for which the IC50 is 0.266 µM.

Turning to `CC(C)COc1ccc([C@@H](O)[C@@H](N)c2ccc(Cl)c(Cl)c2)cc1` (racemic) [Example 50, rac-erythro-2-Amino-2-(3,4-dichloro-phenyl)-1-(4-isobutoxy-phenyl)-ethanol], the IC50 was 0.549 µM.

Take `N[C@@H](c1ccc(Cl)c(Cl)c1)[C@H](O)c1ccc(OC2CCOC2)cc1F` (mixture of isomers) [Example 16, rac-erythro-[rac-2-Amino-2-(3,4-dichloro-phenyl)-1-[2-fluoro-4-(tetrahydro-furan-3-yloxy)-phenyl]-ethanol hydrochloride]: the IC50 was found to be 0.039 µM.

For the compound `Cc1cc([C@@H](O)[C@@H](N)c2ccc(Cl)c(Cl)c2)cnc1OC1CCOCC1` (racemic) [Example 26, rac-erythro-[2-Amino-2-(3,4-dichloro-phenyl)-1-[5-methyl-6-(tetrahydro-pyran-4-yloxy)-pyridin-3-yl]-ethanoldihydrochloride], the half-maximal inhibitory concentration (IC50) was found to be 0.239 µM.

For the compound `N[C@@H](c1ccc(C(F)(F)F)cc1)[C@H](O)c1ccc(-c2cccnc2)cc1` (racemic) [Example 88, rac-erythro-2-Amino-1-(4-pyridin-3-yl-phenyl)-2-(4-trifluoromethyl-phenyl)-ethanol], the IC50 was 0.255 µM.

For `N[C@@H](c1ccc(Cl)c(Cl)c1)[C@H](O)c1cc(F)c(OC2CCOCC2)c(F)c1` (racemic) [Example 20, rac-erythro-[2-Amino-2-(3,4-dichloro-phenyl)-1-[3,5-difluoro-4-(tetrahydro-pyran-4-yloxy)-phenyl]-ethanol hydrochloride], the 50% inhibitory concentration (IC50) came out at 0.09 µM.

Take `N[C@@H](c1ccc(Cl)cc1)[C@H](O)c1ccc(OC(CF)CF)cc1` (racemic) [Example 58, rac-erythro-2-Amino-2-(4-chloro-phenyl)-1-[4-(2-fluoro-1-fluoromethyl-ethoxy)-phenyl]-ethanol]: the IC50 is 0.478 µM.

In the case of `Cc1ccc([C@H](N)[C@H](O)c2ccc(-c3cccnc3)cc2)cc1F` (racemic) [Example 91, rac-erythro-2-Amino-2-(3-fluoro-4-methyl-phenyl)-1-(4-pyridin-3-yl-phenyl)-ethanol], the IC50 came out at 0.073 µM.

With `N[C@@H](c1ccc(Cl)c(Cl)c1)[C@H](O)c1ccc(OC2CCOCC2)c(F)c1` (racemic) [Example 18, rac-erythro-[2-Amino-2-(3,4-dichloro-phenyl)-1-[3-fluoro-4-(tetrahydro-pyran-4-yloxy)-phenyl]-ethanol hydrochloride], the IC50 amounted to 0.049 µM.

In the case of `CC(C)Oc1cccc(-c2ccc([C@@H](O)[C@@H](N)c3ccc(Cl)c(Cl)c3)cc2)c1` (racemic) [Example 106, rac-erythro-2-Amino-2-(3,4-dichloro-phenyl)-1-(3′-isopropoxy-biphenyl-4-yl)-ethanol], the IC50 amounted to 0.851 µM.

For the compound `Cc1cc([C@H](N)[C@H](O)c2ccc(-c3cccnc3)cc2)ccc1Cl` (racemic) [Example 86, rac-erythro-2-Amino-2-(4-chloro-3-methyl-phenyl)-1-(4-pyridin-3-yl-phenyl)-ethanol], the 50% inhibitory concentration (IC50) is 0.049 µM.

The record behind these values is patent US8367838B2, “Amines or amino alcohols as GLYT1 inhibitors” (Hoffmann-La Roche Inc., priority 2009, dated 2013).
